# In patent publication US10939684B2, “Preparation of sulfonamide-containing antimicrobials and substrate treating compositions of sulfonamide-containing antimicrobials” (NANO SAFE COATINGS INCORPORATED, priority 2015, dated 2021):
# “Also recorded” adds a separate entry of the source.
# Tests used:
# Type in all cases: cell-based
# Arthrobacter spp. = assay: Large-droplet inoculation method, antimicrobial efficacy at solid-air interfaces; settings: for Average: average of A-C; for A (cfu): replicate A; for B (cfu): replicate B; for C (cfu): replicate C
# Text: (§1) Large-droplet inoculation method (Ronan E. et al, Biofouling 2013, 29, 1087-1096) Many pathogens are able to remain viable during extended periods of desiccation on inanimate surfaces. Long-term survival of pathogens in the inanimate environment pose a significant risk for infection transmission and contamination in high-risk environments such as hospital rooms or food-processing plants. The large-droplet inoculation method was developed to simulate the deposition of bacterial species onto exposed surfaces and to determine the ability of these cells to survive desiccation.
# (§2) For these tests, small surface coupons were first coated with the antimicrobial using the method described above. Bacterial test species were grown overnight in a shaking incubator and cultures
# (§3) were washed twice to replace the growth media with sterile water. 100 μL aliquots of the prepared culture were then inoculated onto multiple coated surfaces and allowed to air-dry within a biological safety cabinet. Drying typically occurred 2-3 hours after inoculation, and surviving cells were enumerated immediately and 24 hours after drying. For enumeration, inoculated coupons were sacrificed in triplicate and placed inside separate tubes containing 5 mL of a 0.9% saline collection liquid. Each coupon was agitated vigorously for 1 minute with a bench-top vortex to transfer cells from the test surface to the collection liquid. Plate counts were then performed on serial dilutions of the collection liquid, and colony counts from triplicate treated surfaces were averaged and compared to colony counts from tests of untreated control surfaces carried out in parallel.
# (§4) A range of bacterial species were used in these tests. Arthrobacter spp., a gram-positive lab strain originally isolated from indoor air was used in the bulk of the testing, as it is known to be highly resistant to desiccation and therefore was used as a model for desiccation-tolerant pathogens. Efficacy tests were also carried out against, for example, gram-negative Escherichia coli (E. coli) and gram-positive Staphylococcus aureus (S. aureus), since they all contain pathogenic strains and have been implicated in major nosocomial outbreaks. […] The following are the tabulated bacterial reduction data: […]
# [1] = test system: Escherichia coli (E. coli); assay: as above; settings: for Average / A (cfu) / B (cfu) / C (cfu): E. coli, treated polyethylene, load 5.05E+07; for Average: average of A-C; for A (cfu): replicate A; for B (cfu): replicate B; for C (cfu): replicate C; for activity against E. coli (in words): treated polyethylene coupons, compared to untreated control (FIG. 6)
# Text: as §1, §2, §3, §4
# [2] = test system: Staphylococcus aureus (S. aureus); assay: as above; settings: for Average / A (cfu) / B (cfu) / C (cfu): S. aureus, treated polyethylene, load 8.30E+05; for Average: average of A-C; for A (cfu): replicate A; for B (cfu): replicate B; for C (cfu): replicate C; for activity against S. aureus (in words): treated polyethylene coupons, compared to untreated control (FIG. 6)
# Text: as §1, §2, §3, §4
# [3] = test system: Arthrobacter spp. planktonic cells; assay: Static biofilm test in coated polyethylene test tubes, planktonic cell survival; settings: 48 hours; for Average / A (cfu) / B (cfu) / C (cfu): planktonic cells; for Average: average of A-C; for A (cfu): replicate A; for B (cfu): replicate B; for C (cfu): replicate C; for activity against planktonic cells (in words): initial test and re-challenge (FIG. 9)
# Description: (§5) The interior of polyethylene test tubes was coated with the sulfonamide QUAT antimicrobial similarly as in Example 32. Tubes were filled with 2.7 mL of growth media (3 g/L TSB) into which 300 μL of Arthrobacter spp. bacterial culture was inoculated. Planktonic cells were sampled after 48 hours of incubation and agitation by removing 100 μL aliquots from each tube. After 48 hours, the liquid in each tube was removed completely so that biofilm attachment to the interior of the tubes could be assessed. To test for biofilm attachment the tubes were first gently rinsed in a saline solution to remove any loosely attached or residual planktonic cells. Next, 1 mL of saline solution was added to each tube before the tubes were vortexed vigorously for 1 minute to transfer biofilm cells to the collection liquid. Plate counts were then performed on serial dilutions of this collection liquid. Planktonic and biofilm colony counts from triplicate coated tubes were averaged and compared to colony counts from tests of uncoated control tubes carried out in parallel. After 14 days of exposure to ambient air, the tubes used in the above test were subjected to a second static biofilm test as described above, without reapplying the antimicrobial. This test was performed to determine whether the antimicrobial effects of the coating persisted following repeated exposures.
# [4] = test system: Arthrobacter spp. biofilm cells; assay: Static biofilm test in coated polyethylene test tubes, biofilm cell survival; settings: for Average / A (cfu) / B (cfu) / C (cfu): biofilm cells, 48 hours; for Average: average of A-C; for A (cfu): replicate A; for B (cfu): replicate B; for C (cfu): replicate C
# Description: as §5
# [5] = treated polystyrene, 3 hours, load 1.28E+08
# [6] = treated polystyrene, 24 hours, load 1.28E+08
# [7] = listed as 3-(4-benzoylphenoxy)-N,N-dimethyl-N-(3-(2,4,6-trimethylphenyl sulfonamido)propyl)
# [8] = listed as 3-(4-benzoylphenoxy)-N,N-dimethyl-N-(3-(2,4,6-trimethylphenylsulfonamido)propyl)
# [9] = initial test, treated polyethylene test tubes, load 7.75E+08
# [10] = rechallenge after 14 days without reapplying, load 8.00E+08
# [11] = treated cotton, 3 hours, load 6.10E+07
# [12] = treated cotton, 24 hours, load 6.10E+07
compound,measurement,setting,value
"Cc1cc(C)c(S(=O)(=O)NCCC[N+](C)(C)CCCOc2ccc(C(=O)c3ccccc3)cc2)c(C)c1.[Br-] [Example 3c, 3-(4-benzoylphenoxy)-N,N-dimethyl-N-(3-(2,4,6-trimethylphenylsulfonamido)propyl)propan-1-aminium bromide]",activity against Arthrobacter spp. (in words),"Arthrobacter spp.; treated polystyrene, compared to untreated control (FIG. 3)",eradicated within three hours; also recorded: excellent activity
same,Average,Arthrobacter spp.; [5],0.00E+00 cfu
same,A (cfu),Arthrobacter spp.; [5],0.00E+00 cfu
same,B (cfu),Arthrobacter spp.; [5],0.00E+00 cfu
same,C (cfu),Arthrobacter spp.; [5],0.00E+00 cfu
same,Average,Arthrobacter spp.; [6],0.00E+00 cfu
same,A (cfu),Arthrobacter spp.; [6],0.00E+00 cfu
same,B (cfu),Arthrobacter spp.; [6],0.00E+00 cfu
same,C (cfu),Arthrobacter spp.; [6],0.00E+00 cfu
same,Average,[1]; 3 hours,0.00E+00 cfu
same,A (cfu),[1]; 3 hours,0.00E+00 cfu
same,B (cfu),[1]; 3 hours,0.00E+00 cfu
same,C (cfu),[1]; 3 hours,0.00E+00 cfu
same,Average,[1]; 24 hours,0.00E+00 cfu
same,A (cfu),[1]; 24 hours,0.00E+00 cfu
same,B (cfu),[1]; 24 hours,0.00E+00 cfu
same,C (cfu),[1]; 24 hours,0.00E+00 cfu
same,activity against E. coli (in words),[1]; [7],excellent activity
same,activity against E. coli (in words),[1]; [8],eradicated within three hours
same,Average,[2]; 3 hours,0.00E+00 cfu
same,A (cfu),[2]; 3 hours,0.00E+00 cfu
same,B (cfu),[2]; 3 hours,0.00E+00 cfu
same,C (cfu),[2]; 3 hours,0.00E+00 cfu
same,Average,[2]; 24 hours,0.00E+00 cfu
same,A (cfu),[2]; 24 hours,0.00E+00 cfu
same,B (cfu),[2]; 24 hours,0.00E+00 cfu
same,C (cfu),[2]; 24 hours,0.00E+00 cfu
same,activity against S. aureus (in words),[2]; [7],excellent activity
same,activity against S. aureus (in words),[2]; [8],eradicated within three hours
same,Average,[3]; [9],0.00E+00 cfu
same,A (cfu),[3]; [9],0.00E+00 cfu
same,B (cfu),[3]; [9],0.00E+00 cfu
same,C (cfu),[3]; [9],0.00E+00 cfu
same,Average,[3]; [10],0.00E+00 cfu
same,A (cfu),[3]; [10],0.00E+00 cfu
same,B (cfu),[3]; [10],0.00E+00 cfu
same,C (cfu),[3]; [10],0.00E+00 cfu
same,activity against planktonic cells (in words),"[3]; treated polyethylene test tubes, listed as 3-(4-benzoylphenoxy)-N,N-dimethyl-N-(3-(2,4,6-trimethylphenyl sulfonamido)propyl)",excellent activity
same,activity against planktonic cells (in words),"[3]; treated polyethylene test tubes, listed as 3-(4-benzoylphenoxy)-N,N-dimethyl-N-(3-(2,4,6-trimethylphenylsulfonamido)propyl)",complete eradication
same,Average,[4]; [9],0.00E+00 cfu
same,A (cfu),[4]; [9],0.00E+00 cfu
same,B (cfu),[4]; [9],0.00E+00 cfu
same,C (cfu),[4]; [9],0.00E+00 cfu
same,Average,[4]; [10],0.00E+00 cfu
same,A (cfu),[4]; [10],0.00E+00 cfu
same,B (cfu),[4]; [10],0.00E+00 cfu
same,C (cfu),[4]; [10],0.00E+00 cfu
same,activity against biofilm cells / biofilm development (in words),"[4]; treated polyethylene test tubes, 48 hours (FIG. 10)",excellent activity
"CO[Si](CCC[N+](C)(C)CCCNS(=O)(=O)c1cccc2ccccc12)(OC)OC.[Cl-] [Example 5a, N,N-dimethyl-3-(naphthalene-1-sulfonamido)-N-(3-(trimethoxysilyl)propyl)propan-1-aminium chloride]",activity against Arthrobacter spp. (in words),"Arthrobacter spp.; treated cotton, compared to untreated control (FIG. 3, FIG. 4)",eradicated within three hours; also recorded: excellent activity
same,Average,Arthrobacter spp.; [11],0.00E+00 cfu
same,A (cfu),Arthrobacter spp.; [11],0.00E+00 cfu
same,B (cfu),Arthrobacter spp.; [11],0.00E+00 cfu
same,C (cfu),Arthrobacter spp.; [11],0.00E+00 cfu
same,Average,Arthrobacter spp.; [12],0.00E+00 cfu
same,A (cfu),Arthrobacter spp.; [12],0.00E+00 cfu
same,B (cfu),Arthrobacter spp.; [12],0.00E+00 cfu
same,C (cfu),Arthrobacter spp.; [12],0.00E+00 cfu
